Experimental data: patent publication US20230381261A1, “A Purified Extract Isolated from Agrimonia Coreana Nakai Containing Abundant Amount of Active Ingredient, the Preparation Thereof, the Composition Comprising the Same as an Active Ingredient for Preventing or Treating Inflammation, Allergy and Atopic Dermatitis and the Use Thereof” (priority 2020, published 2023)

Assays:
CD4+ T cell = test: Inhibition of CD4+ T cell proliferation (CFSE, flow cytometry, anti-CD3/anti-CD28 stimulation); format: cell-based; settings: Homo sapiens; 10 μM BTP2 control; anti-CD3 and anti-CD28 stimulated CD4+ T cell; 72 hours; read-out: Inhibition rate on T cell proliferation (%)
Protocol: In order to determine the anti-immunological activity of inventive extract, following inhibition test of proliferation of T cell isolated from human blood was performed according to the procedure disclosed in the literature (J Immunol Jul. 15, 2002, 169 (2) 802-808).
In order to evaluate the anti-immunological activity of inventive extract, PBMC(peripheral blood mononuclear cell) and T cell which had been used in the various immunological analysis, were prepared from human blood using Fiicoll (GE17-5442-02, GE Healthcare) according to the previous literature (BIOPRESERVATION AND BIOBANKING, Volume 14, Number 5, 2016).
CD4+ T cell was carefully isolated from the isolated PBMC using by T cell isolation kit (130-096-533, Miltenyi biotec.) according to the manufacture's manual instruction.
The anti-immunological effect on T cell was evaluated by the inhibition effect on the proliferation of CD4+ T cell. […]
The T cell treated with test sample was incubated at 37° C. for 72 hours in 5% CO2 incubator (MCO-18AC, Panasonic) and then the cell was collected to be analyzed using Flow cytometry (BD LSRFortessa, BD Biosciences).

[1] = system: IL-2 release in Jurkat T cell; test: Inhibition of IL-2 release in Jurkat T cell (ELISA, anti-CD3/anti-CD28 stimulation); format: cell-based; settings: Homo sapiens; 10 μM BTP2 control; anti-CD3 and anti-CD28 stimulated Jurkat T cell; 72 hours; read-out: Inhibition rate on IL-2 release (%)
Protocol: In order to determine the anti-immunological activity of inventive extract, following inhibition test of cytokine release in Jukrat T cell was performed according to the procedure disclosed in the literature (ARTHRITIS & RHEUMATISM Vol. 52, No. 9, September 2005, pp 2730-2739).
ELISA (Enzyme-linked immunosorbent assay) was performed to determine the release of IL-2 in Jukrat T cell.
Jukrat T cell (TIB-152, American Type Culture Collection(ATCC)) was inoculated into 96 well plates (2×10^5 cells/well) and stimulated with anti-CD3 and anti-CD 28.
In order to determine the inhibition effect on the IL-2 release of T cell of inventive extract, the test samples, i.e., the extract disclosed in Comparative Examples and Examples, were inoculated into the well plate to be 100 μg/mL with the stimuli of anti-CD3 and anti-CD 28.
10 μM BTP2([N-{4-[3,5-bis(Trifluoromethyl)-1H-pyrazol-1-yl]phenyl}-4-methyl-1,2,3-thiadiazole-5-carboxamide], 203890-M, Calbiochem) was used as a control group. […]
The release of cytokines was analyzed by IL-2 specifically reacting ELISA kit (BGK60568, Peprotech Inc. NJ, USA) and the content of IL-2 was determined according to the instruction manual of manufacture.

Cc1nnsc1C(=O)Nc1ccc(-n2nc(C(F)(F)F)cc2C(F)(F)F)cc1 [BTP2, N-{4-[3,5-bis(Trifluoromethyl)-1H-pyrazol-1-yl]phenyl}-4-methyl-1,2,3-thiadiazole-5-carboxamide]
inhibition at 10 µM (CD4+ T cell): 98.84 ± 0.0006%
inhibition at 10 µM [1]: 90.3 ± 0.552%
